Experiments:
[1] = target: Cannabinoid receptor 1 (Homo sapiens, UniProt P21554); format: cell membranes, Membrane; settings: chem-1; note: in other assays of this panel Not Active means under 50% inhibition at 10 µM
[2] = target: Epidermal growth factor receptor (Homo sapiens, UniProt P00533); assay: DRUGMATRIX: Protein Tyrosine Kinase, EGF Receptor enzyme inhibition (substrate: Poly(Glu:Tyr)); format: cell-based, Insect cells; settings: insect cells; Not Active = under 50% inhibition at 10 µM
[3] = target: Aldo-keto reductase family 1 member B1 (Rattus norvegicus, UniProt P07943); format: tissue-based, Lens of camera-type eye;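 note: inhibition of aldose reductase enzyme activity, measured with DL-glyceraldehyde as the substrate; in other assays of this panel Not Active means under 50% inhibition at 10 µM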
[4] = target: Insulin receptor (Rattus norvegicus, UniProt P15127); format: cell membranes, Wistar, Liver, Membrane; note: in other assays of this panel Not Active means under 50% inhibition at 10 µM
[5] = target: 5-hydroxytryptamine receptor 6 (Homo sapiens, UniProt P50406); format: cell membranes, HeLa, Membrane; settings: hela; note: in other assays of this panel Not Active means under 50% inhibition at 10 µM
[6] = target: T1, Amine oxidase [flavin-containing] A (Homo sapiens, UniProt P21397); assay: DRUGMATRIX: Monoamine Oxidase MAO-A enzyme inhibition (substrate: Kynuramine); parameters: species or system BTI-TN-5B1-4; settings: bti-tn-5b1-4; Not Active = under 50% inhibition at 10 µM
T1 sequence (P21397 whole entry): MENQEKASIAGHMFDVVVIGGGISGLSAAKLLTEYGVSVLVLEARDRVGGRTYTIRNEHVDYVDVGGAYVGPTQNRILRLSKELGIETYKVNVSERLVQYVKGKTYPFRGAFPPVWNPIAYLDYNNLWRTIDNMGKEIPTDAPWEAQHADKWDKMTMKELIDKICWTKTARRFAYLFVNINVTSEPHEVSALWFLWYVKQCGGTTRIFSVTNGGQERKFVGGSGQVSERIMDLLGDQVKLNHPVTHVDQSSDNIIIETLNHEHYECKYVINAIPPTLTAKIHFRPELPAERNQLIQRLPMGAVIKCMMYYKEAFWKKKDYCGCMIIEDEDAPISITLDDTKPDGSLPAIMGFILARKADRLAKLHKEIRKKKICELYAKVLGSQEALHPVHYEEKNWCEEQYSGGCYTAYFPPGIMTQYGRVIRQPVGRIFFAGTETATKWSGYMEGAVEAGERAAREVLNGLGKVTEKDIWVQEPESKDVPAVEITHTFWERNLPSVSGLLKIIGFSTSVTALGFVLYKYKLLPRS

[7] = DRUGMATRIX: Tumor Necrosis Factor (TNF), Non-Selective radioligand binding (ligand: [125I] TNF-alpha); format: cell membranes, Membrane; settings: u-937; Not Active = under 50% inhibition at 10 µM
[8] = target: T2, Cholecystokinin receptor type A (Homo sapiens, UniProt P32238); format: cell membranes, Membrane; settings: 1321-n1; note: in other assays of this panel Not Active means under 50% inhibition at 10 µM
T2 sequence (P32238 whole entry): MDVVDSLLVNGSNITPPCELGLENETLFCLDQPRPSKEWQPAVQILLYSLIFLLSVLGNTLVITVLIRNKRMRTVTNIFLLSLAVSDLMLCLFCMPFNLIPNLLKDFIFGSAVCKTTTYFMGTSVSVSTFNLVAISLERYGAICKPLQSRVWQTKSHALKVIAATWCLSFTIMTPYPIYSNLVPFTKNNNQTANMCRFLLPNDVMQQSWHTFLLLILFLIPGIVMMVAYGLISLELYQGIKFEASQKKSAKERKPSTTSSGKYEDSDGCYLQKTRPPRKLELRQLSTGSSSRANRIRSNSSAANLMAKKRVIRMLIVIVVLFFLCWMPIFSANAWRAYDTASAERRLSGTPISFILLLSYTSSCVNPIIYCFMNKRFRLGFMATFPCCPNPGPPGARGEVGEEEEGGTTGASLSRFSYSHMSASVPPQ

[9] = target: D(3) dopamine receptor (Homo sapiens, UniProt P35462); assay: DRUGMATRIX: Dopamine D3 radioligand binding (ligand: [3H] Spiperone); format: cell membranes, CHO, Membrane; settings: cho
[10] = DRUGMATRIX: Sodium/nucleoside co-transporter radioligand binding (ligand: nitrobenzylthioinosine); format: cell membranes, Cavia porcellus, Dunkin-Hartley, Cerebral cortex, Membrane; settings: Not Active = under 50% inhibition at 10 µM
[11] = target: Adenosine receptor A2a (Homo sapiens, UniProt P29274); assay: DRUGMATRIX: Adenosine A2A radioligand binding (ligand: […]); format: cell membranes, HEK293, Membrane; settings: hek293; Not Active = under 50% inhibition at 10 µM
[12] = target: T3, Calcitonin receptor (Homo sapiens, UniProt P30988); format: cell membranes, Membrane; settings: t47d; note: in other assays of this panel Not Active means under 50% inhibition at 10 µM
T3 sequence (P30988 whole entry): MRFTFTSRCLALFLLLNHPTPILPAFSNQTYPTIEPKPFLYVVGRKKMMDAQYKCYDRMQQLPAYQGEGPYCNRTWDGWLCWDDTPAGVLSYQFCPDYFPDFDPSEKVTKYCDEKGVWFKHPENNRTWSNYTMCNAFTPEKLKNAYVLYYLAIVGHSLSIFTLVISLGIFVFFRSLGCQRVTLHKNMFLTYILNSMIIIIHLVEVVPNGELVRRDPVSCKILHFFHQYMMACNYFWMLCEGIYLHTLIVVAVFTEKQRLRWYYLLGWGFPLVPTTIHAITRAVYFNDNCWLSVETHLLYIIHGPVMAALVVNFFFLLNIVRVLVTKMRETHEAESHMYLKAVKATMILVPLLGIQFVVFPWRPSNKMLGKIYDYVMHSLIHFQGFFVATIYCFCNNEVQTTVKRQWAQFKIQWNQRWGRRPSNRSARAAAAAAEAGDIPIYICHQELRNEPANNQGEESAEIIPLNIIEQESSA

[13] = target: T4, Thromboxane-A synthase (Homo sapiens, UniProt P24557); assay: biochemical; format: tissue-based, Platelet; settings: platelet
T4 sequence (P24557 whole entry): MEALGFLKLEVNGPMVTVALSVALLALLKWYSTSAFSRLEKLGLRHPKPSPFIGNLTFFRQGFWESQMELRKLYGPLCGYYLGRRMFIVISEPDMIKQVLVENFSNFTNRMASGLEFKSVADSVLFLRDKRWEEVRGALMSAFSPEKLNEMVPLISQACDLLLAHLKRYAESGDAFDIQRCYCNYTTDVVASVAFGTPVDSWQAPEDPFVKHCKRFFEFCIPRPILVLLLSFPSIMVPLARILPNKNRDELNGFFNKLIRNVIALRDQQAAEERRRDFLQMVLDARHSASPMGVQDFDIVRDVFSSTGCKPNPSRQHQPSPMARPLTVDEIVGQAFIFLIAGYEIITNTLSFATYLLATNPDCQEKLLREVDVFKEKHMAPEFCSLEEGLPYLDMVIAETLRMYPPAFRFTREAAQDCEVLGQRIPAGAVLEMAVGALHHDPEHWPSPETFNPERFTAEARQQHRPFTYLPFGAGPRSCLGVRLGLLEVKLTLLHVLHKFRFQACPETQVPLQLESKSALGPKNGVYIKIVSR

[14] = DRUGMATRIX: Sigma2 radioligand binding (ligand: [3H] Ifenprodil); format: cell membranes, Rattus norvegicus, Wistar, Brain, Membrane; settings: Not Active = under 50% inhibition at 10 µM
[15] = target: Cytochrome P450 2E1 (Homo sapiens, UniProt P05181); settings: bti-tn-5b1-4; note: in other assays of this panel Not Active means under 50% inhibition at 10 µM
Cytochrome P450 2E1, sequence (P05181 whole entry): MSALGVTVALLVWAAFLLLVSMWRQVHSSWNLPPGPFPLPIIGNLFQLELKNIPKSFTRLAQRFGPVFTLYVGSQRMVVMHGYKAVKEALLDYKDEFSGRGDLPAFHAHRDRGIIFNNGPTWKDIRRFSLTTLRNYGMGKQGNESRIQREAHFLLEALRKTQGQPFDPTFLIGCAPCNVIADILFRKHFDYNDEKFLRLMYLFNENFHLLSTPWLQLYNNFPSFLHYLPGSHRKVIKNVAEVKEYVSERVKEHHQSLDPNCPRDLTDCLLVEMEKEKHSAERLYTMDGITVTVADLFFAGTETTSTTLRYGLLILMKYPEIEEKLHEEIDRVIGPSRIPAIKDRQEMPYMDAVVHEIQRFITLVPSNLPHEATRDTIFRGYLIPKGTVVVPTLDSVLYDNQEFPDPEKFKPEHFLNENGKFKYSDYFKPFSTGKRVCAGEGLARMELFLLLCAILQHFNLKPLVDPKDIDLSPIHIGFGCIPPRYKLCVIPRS

5-hydroxytryptamine receptor 6, sequence (P50406 whole entry): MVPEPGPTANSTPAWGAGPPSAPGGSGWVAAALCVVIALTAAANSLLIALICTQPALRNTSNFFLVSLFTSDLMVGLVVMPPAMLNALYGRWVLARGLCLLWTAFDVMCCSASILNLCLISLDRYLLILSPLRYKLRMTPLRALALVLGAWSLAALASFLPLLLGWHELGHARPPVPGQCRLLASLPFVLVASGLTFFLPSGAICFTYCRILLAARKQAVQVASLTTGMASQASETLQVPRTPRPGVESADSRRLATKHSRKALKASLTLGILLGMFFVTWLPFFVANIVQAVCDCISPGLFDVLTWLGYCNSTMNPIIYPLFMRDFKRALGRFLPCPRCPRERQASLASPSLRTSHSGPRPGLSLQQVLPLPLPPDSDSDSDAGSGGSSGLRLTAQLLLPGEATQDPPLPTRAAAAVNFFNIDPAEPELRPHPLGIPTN
Insulin receptor, sequence (P15127 27-759 limits assumed): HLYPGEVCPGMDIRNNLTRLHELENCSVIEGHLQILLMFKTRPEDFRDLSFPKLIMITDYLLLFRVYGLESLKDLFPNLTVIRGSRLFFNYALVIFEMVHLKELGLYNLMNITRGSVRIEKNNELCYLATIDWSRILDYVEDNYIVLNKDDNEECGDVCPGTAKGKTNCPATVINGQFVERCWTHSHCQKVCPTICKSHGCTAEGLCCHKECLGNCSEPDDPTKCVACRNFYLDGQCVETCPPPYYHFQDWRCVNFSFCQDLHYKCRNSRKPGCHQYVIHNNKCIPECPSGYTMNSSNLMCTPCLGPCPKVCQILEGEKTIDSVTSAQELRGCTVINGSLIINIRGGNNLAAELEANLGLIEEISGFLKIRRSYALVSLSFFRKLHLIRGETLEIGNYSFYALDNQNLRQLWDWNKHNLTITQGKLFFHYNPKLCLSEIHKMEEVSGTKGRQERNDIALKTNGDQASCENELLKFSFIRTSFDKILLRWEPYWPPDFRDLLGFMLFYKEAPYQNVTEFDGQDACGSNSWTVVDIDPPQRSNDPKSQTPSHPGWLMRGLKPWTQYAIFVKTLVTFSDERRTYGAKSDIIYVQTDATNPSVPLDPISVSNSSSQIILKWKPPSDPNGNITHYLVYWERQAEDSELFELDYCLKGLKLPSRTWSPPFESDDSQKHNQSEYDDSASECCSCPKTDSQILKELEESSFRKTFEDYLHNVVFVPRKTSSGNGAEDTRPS
Insulin receptor, sequence (P15127 764-1383 limits assumed): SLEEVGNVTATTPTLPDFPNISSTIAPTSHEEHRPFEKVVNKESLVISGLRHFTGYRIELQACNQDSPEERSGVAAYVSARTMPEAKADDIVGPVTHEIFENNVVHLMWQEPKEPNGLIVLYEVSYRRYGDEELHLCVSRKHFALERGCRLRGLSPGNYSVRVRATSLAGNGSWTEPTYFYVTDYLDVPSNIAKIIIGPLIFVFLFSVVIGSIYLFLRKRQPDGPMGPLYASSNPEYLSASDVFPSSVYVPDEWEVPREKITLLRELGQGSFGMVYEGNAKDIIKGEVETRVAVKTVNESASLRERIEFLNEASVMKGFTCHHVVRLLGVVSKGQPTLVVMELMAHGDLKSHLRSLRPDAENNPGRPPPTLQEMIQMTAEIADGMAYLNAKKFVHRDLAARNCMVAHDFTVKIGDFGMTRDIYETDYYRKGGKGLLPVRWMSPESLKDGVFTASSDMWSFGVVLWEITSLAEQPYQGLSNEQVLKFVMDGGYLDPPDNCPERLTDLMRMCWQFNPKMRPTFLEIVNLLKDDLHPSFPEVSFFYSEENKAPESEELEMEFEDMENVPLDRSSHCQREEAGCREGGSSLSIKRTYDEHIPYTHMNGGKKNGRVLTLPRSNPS
Cannabinoid receptor 1, sequence (P21554 whole entry): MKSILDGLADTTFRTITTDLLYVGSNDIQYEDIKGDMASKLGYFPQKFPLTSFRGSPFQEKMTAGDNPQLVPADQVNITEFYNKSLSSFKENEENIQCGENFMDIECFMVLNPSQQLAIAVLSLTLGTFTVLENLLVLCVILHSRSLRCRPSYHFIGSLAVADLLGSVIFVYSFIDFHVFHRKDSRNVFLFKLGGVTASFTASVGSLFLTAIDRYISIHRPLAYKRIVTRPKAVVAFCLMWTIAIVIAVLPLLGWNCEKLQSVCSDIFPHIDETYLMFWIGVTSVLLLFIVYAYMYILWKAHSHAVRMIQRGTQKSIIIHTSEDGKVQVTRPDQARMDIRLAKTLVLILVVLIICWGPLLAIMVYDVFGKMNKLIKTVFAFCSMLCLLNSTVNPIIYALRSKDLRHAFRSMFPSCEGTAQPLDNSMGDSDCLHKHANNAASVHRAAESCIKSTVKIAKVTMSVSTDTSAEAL
D(3) dopamine receptor, sequence (P35462 whole entry): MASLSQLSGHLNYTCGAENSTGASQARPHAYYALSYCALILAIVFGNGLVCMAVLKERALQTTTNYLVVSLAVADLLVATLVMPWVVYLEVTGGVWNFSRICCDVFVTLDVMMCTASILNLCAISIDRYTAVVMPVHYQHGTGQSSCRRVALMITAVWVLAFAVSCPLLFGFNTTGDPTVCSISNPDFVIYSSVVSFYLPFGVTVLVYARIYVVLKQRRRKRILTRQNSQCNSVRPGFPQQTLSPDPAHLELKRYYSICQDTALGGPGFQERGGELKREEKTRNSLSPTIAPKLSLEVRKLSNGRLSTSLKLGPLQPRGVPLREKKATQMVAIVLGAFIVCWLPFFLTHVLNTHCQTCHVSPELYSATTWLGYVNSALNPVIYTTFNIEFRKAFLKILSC
Epidermal growth factor receptor, sequence (P00533 whole entry): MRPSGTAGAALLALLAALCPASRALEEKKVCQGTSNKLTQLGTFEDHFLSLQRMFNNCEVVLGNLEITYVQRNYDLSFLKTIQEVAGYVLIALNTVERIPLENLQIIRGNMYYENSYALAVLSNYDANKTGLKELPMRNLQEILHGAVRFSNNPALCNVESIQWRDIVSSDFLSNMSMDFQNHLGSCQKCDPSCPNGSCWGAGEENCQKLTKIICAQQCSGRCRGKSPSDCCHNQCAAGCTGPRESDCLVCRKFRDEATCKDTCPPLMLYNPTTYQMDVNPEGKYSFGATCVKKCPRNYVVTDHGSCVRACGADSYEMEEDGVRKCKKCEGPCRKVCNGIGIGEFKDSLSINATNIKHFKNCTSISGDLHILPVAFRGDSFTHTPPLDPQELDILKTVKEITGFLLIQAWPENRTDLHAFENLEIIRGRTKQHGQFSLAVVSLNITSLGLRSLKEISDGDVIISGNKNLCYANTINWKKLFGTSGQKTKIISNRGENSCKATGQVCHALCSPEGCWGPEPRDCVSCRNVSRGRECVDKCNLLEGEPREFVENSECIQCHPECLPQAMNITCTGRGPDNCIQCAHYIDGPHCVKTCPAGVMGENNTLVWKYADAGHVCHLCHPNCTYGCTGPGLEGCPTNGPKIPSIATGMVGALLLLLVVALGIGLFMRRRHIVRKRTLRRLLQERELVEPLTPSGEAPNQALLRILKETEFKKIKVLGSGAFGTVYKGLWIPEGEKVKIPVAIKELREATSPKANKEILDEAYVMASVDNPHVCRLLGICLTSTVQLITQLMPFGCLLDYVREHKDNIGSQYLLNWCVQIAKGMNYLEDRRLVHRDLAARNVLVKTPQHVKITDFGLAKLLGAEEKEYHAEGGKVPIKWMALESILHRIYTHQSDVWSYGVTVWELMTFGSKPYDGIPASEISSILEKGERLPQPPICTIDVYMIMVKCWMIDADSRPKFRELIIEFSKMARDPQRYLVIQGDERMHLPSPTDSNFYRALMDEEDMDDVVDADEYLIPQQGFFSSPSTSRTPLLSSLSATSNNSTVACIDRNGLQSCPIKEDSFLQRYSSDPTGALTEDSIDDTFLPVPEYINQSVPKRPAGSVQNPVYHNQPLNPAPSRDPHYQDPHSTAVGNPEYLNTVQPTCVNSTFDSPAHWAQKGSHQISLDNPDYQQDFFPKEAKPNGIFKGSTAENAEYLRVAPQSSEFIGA
Adenosine receptor A2a, sequence (P29274 whole entry): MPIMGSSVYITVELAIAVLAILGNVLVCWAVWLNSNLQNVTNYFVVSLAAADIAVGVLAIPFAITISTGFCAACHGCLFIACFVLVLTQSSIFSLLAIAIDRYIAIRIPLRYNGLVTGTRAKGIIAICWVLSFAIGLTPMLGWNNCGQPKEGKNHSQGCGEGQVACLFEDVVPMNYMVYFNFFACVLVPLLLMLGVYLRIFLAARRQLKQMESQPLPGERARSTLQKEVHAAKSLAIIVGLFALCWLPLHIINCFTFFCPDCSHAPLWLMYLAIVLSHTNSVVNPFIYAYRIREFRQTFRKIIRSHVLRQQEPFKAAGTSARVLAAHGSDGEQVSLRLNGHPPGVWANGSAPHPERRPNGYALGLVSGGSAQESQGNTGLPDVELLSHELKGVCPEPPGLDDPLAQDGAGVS

O=[N+]([O-])c1cc([As](=O)(O)O)ccc1O [ROXARSONE]
Not Active: IC50 [1] | Ki [1] | IC50 [2] | Ki [2] | IC50 [3] | Ki [3] | IC50 [4] | Ki [4] | IC50 [5] | Ki [5] | IC50 [6] | Ki [6] | IC50 [7] | Ki [7] | IC50 [8] | Ki [8] | IC50 [9] | Ki [9] | IC50 [10] | Ki [10] | IC50 [11] | Ki [11] | IC50 [12] | Ki [12] | IC50 [13] | Ki [13] | IC50 [14] | Ki [14] | IC50 [15] | Ki [15]

CC[C@H]1OC(=O)[C@H](C)[C@@H](O[C@H]2C[C@@](C)(OC)[C@@H](O)[C@H](C)O2)[C@H](C)[C@@H](O[C@@H]2O[C@H](C)C[C@H](N(C)C)[C@H]2O)[C@](C)(O)C[C@@H](C)/C(=N\OCOCCOC)[C@H](C)[C@@H](O)[C@]1(C)O [ROXITHROMYCIN]
Not Active: IC50 [1] | IC50 [2] | IC50 [3] | IC50 [4] | IC50 [5] | IC50 [6] | IC50 [7] | Ki [7] | IC50 [8] | IC50 [9] | IC50 [10] | Ki [10] | IC50 [11] | IC50 [12] | IC50 [13] | IC50 [14] | Ki [14] | IC50 [15] | Ki [15]

NC(=O)c1ccccc1O [SALICYLAMIDE]
Not Active: IC50 [1] | IC50 [2] | IC50 [3] | IC50 [4] | IC50 [5] | IC50 [6] | IC50 [7] | Ki [7] | IC50 [8] | IC50 [9] | IC50 [10] | Ki [10] | IC50 [11] | IC50 [12] | IC50 [13] | IC50 [14] | Ki [14] | IC50 [15] | Ki [15]

Cc1ncc([N+](=O)[O-])n1CC(C)O (centres undefined) [SECNIDAZOLE]
Not Active: IC50 [1] | IC50 [2] | IC50 [3] | IC50 [4] | IC50 [5] | IC50 [6] | IC50 [7] | Ki [7] | IC50 [8] | IC50 [9] | IC50 [10] | Ki [10] | IC50 [11] | IC50 [12] | IC50 [13] | IC50 [14] | Ki [14] | IC50 [15] | Ki [15]

CC(=O)S[C@@H]1CC2=CC(=O)CC[C@]2(C)[C@H]2CC[C@@]3(C)[C@@H](CC[C@@]34CCC(=O)O4)[C@H]12 [SPIRONOLACTONE]
Not Active: IC50 [1] | IC50 [2] | IC50 [3] | IC50 [4] | IC50 [5] | IC50 [6] | IC50 [7] | Ki [7] | IC50 [8] | IC50 [9] | IC50 [10] | Ki [10] | IC50 [11] | IC50 [12] | IC50 [13] | IC50 [14] | Ki [14] | IC50 [15] | Ki [15]

C[C@]12Cc3c[nH]nc3C[C@@H]1CC[C@@H]1[C@@H]2CC[C@@]2(C)[C@H]1CC[C@]2(C)O [STANOZOLOL]
Not Active: IC50 [1] | IC50 [2] | IC50 [3] | IC50 [4] | IC50 [5] | IC50 [6] | IC50 [7] | Ki [7] | IC50 [8] | IC50 [9] | IC50 [10] | Ki [10] | IC50 [11] | IC50 [12] | IC50 [13] | IC50 [14] | Ki [14] | IC50 [15] | Ki [15]

CN(N=O)C(=O)N[C@@H](C=O)[C@@H](O)[C@H](O)[C@H](O)CO [STREPTOZOCIN]
Not Active: IC50 [1] | IC50 [2] | IC50 [3] | IC50 [4] | IC50 [5] | IC50 [6] | IC50 [7] | Ki [7] | IC50 [8] | IC50 [9] | IC50 [10] | Ki [10] | IC50 [11] | IC50 [12] | IC50 [13] | IC50 [14] | Ki [14] | IC50 [15] | Ki [15]

From ChEMBL document CHEMBL1909046, “DrugMatrix in vitro pharmacology data”
